Calls of active or inactive are those of the source.
Key:
Streptococcus = assay: Group A Streptococcus viability loss, dose response, counter-screen for streptokinase expression inhibitor project, luminescence, BacTiterGlo (AID 1915); type: functional, organism-based;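 note: potency for reduction of bacterial viability or growth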
Streptokinase A = molecular target: T1, Streptokinase A (Streptococcus pyogenes serotype M1, UniProt P10520); assay: S. pyogenes streptokinase expression inhibitors, potency, dose response, plasminogen activation absorbance, OD405 (AID 1914); type: functional, Streptococcus pyogenes M1 GAS;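 note: secreted streptokinase activity via plasminogen activation per viability signal from cell pellet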
T1 sequence (P10520 whole entry): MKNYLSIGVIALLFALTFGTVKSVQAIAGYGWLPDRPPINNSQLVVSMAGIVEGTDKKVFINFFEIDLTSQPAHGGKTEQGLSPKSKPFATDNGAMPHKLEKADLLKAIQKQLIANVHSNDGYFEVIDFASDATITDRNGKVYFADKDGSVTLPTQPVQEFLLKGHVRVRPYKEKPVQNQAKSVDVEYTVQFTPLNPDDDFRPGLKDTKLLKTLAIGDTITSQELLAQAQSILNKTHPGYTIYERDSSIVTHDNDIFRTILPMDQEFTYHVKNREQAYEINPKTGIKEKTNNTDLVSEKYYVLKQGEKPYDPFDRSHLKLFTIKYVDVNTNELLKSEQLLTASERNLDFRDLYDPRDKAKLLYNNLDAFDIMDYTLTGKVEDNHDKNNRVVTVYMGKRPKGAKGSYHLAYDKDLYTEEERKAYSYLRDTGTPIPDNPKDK

[1] = test system: Streptococcus sp. 'group A'; assay: growth inhibition of control SK(-) GAS strain, dose response, counter-screen for streptokinase expression inhibitor project, luminescence, kanamycin, BacTiterGlo, confirmation (AID 1900); type: functional, organism-based
[2] = molecular target: T2, Calpain-2 catalytic subunit (Sus scrofa, UniProt P43367); assay: pig calpain II inhibitor potency, dose response, biochemical, fluorogenic peptide substrate (AID 1420); type: functional
T2 sequence (P43367 whole entry): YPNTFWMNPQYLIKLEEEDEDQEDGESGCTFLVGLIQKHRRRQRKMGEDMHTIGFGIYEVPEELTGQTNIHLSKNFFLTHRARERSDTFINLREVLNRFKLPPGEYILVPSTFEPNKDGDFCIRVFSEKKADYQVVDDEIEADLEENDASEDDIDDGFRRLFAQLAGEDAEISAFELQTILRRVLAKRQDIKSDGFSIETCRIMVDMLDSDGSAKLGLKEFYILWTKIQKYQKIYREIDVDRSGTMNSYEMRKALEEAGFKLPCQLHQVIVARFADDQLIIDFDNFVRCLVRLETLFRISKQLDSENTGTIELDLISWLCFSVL

[3] = microbe, parasite or virus in culture; type: functional; settings: Mycobacterium tuberculosis
[4] = molecular target: T3, High affinity choline transporter 1 (Homo sapiens, UniProt Q9GZV3); assay: CHT inhibitors, dose response, cell-based, 5-point CRC, membrane potential dye (AID 504840); type: functional
T3 sequence (Q9GZV3 whole entry): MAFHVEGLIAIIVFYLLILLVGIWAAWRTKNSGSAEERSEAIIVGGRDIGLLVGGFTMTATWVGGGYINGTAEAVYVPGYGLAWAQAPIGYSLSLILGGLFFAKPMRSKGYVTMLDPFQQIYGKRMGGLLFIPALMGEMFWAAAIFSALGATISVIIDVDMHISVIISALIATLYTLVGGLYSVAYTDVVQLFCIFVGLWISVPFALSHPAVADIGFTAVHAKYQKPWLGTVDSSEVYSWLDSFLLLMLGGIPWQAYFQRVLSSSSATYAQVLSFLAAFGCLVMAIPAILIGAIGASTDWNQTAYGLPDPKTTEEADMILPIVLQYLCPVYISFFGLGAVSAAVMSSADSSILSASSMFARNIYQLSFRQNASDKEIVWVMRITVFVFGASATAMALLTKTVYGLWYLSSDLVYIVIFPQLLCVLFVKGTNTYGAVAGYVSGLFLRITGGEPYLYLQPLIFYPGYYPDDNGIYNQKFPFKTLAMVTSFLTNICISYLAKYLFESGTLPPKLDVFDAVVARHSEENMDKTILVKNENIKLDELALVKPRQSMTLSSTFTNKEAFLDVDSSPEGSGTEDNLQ

cells = type: functional
[5] = molecular target: T4, Ubiquitin-conjugating enzyme E2 N (Homo sapiens, UniProt P61088); type: functional;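 note: Dose-response confirmation in a TR-FRET assay detecting UBC13-driven polyubiquitin chain formation, inhibition measured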
T4 sequence (P61088 whole entry): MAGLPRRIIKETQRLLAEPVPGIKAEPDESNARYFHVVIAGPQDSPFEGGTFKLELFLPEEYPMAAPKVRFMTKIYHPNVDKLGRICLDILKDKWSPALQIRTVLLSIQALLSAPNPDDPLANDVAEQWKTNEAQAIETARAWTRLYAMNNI

[6] = THP-1 cell cytotoxicity, dose response, cytotoxicity control for non-replicating M. tuberculosis project (AID 489025); type: functional
[7] = molecular target: Induced myeloid leukemia cell differentiation protein Mcl-1 (Homo sapiens, UniProt Q07820); type: functional
[8] = molecular target: Peroxisome proliferator-activated receptor gamma/Nuclear receptor coactivator 3 (Homo sapiens, UniProt P37231); type: functional;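 note: agonist potency for raising coactivator recruitment to the receptor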
[9] = molecular target: Peroxisome proliferator-activated receptor gamma/Nuclear receptor coactivator 2 (Homo sapiens, UniProt P37231); type: functional;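 note: agonist potency for raising coactivator recruitment to the receptor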
[10] = molecular target: Peroxisome proliferator-activated receptor gamma/Nuclear receptor coactivator 1 (Homo sapiens, UniProt P37231); type: functional;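 note: agonist potency as compounds enhance coactivator SRC-1 recruitment to PPARgamma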
[11] = inhibitors of intracellular T. cruzi replication, confirmation, NIH3T3 host cells, beta-gal luminescence (AID 2044); type: functional, cell-based;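 note: intracellular parasites grown in NIH/3T3 mouse fibroblasts as host cells; luminescent beta-galactosidase reporter signal from transgenic T. cruzi replicating inside host cells; inhibitors lower the luminescence signal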
[12] = cytotoxicity toward NIH3T3 fibroblasts, dose response, counter-screen, cell-based, ATP luminescence, mouse fibroblasts (AID 2010); type: functional;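 note: cells exposed to compound for about 90 hours before reading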
[13] = Luminescence Cell-Based Dose Retest to Confirm Inhibitors of Cancer Stem Cells. [Related pubchem assays (depositor defined):AID2717, AID2721]; type: functional; settings: Homo sapiens
[14] = molecular target: T5, Microphthalmia-associated transcription factor (Homo sapiens, UniProt O75030); assay: TRPM1 promoter luciferase signal decrease, dose response, MITF inhibitor project, cell-based, SK-MEL-5, cherry-picked, set 3 (AID 493073); type: functional
T5 sequence (O75030 whole entry): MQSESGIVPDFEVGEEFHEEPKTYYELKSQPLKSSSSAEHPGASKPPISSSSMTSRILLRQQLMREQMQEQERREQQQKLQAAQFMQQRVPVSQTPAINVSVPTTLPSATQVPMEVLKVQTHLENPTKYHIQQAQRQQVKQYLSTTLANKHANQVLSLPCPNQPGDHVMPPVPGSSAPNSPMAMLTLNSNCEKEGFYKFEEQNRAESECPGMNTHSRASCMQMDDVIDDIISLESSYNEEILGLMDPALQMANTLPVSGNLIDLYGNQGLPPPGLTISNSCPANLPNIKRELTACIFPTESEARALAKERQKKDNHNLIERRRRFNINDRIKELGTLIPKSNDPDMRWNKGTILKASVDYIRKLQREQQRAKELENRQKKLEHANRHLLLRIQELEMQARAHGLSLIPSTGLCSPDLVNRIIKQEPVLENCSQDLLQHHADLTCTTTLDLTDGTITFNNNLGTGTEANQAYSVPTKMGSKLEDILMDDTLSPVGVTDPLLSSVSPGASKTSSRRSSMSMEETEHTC

Cytochrome P450 3A4 = Cytochrome P450 3A4 (Homo sapiens, UniProt P08684);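 note: CYP3A4 tested as one member of a cytochrome P450 panel screen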
Protein RecA = molecular target: T6, Protein RecA (Mycobacterium tuberculosis, UniProt P9WHJ3); assay: Fluorescence Cell-Free Homogeneous Dose Retest to Identify Inhibitors of RecA-Intein Splicing Activity. [Related pubchem assays (depositor defined):AID2097, AID2223, AID489010, AID492950]; type: functional
T6 sequence (P9WHJ3 whole entry): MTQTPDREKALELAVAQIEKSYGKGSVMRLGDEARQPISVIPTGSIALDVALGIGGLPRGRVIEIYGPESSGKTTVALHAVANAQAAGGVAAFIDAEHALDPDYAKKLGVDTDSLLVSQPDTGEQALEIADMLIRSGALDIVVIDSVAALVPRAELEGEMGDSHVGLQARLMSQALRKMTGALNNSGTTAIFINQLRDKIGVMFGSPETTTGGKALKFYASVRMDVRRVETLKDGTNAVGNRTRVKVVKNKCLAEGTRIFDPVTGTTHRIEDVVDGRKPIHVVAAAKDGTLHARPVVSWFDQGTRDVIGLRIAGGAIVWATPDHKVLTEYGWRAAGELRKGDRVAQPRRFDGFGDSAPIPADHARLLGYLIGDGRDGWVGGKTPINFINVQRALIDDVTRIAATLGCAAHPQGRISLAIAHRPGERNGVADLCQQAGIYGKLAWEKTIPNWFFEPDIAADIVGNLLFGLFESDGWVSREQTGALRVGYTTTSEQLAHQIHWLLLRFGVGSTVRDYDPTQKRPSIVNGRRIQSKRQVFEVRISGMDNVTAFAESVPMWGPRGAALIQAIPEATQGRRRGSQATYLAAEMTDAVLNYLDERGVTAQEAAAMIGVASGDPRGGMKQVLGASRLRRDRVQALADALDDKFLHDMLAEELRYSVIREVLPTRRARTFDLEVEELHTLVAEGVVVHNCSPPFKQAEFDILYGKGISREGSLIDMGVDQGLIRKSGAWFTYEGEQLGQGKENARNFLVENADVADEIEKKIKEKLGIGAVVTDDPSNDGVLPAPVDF

[15] = molecular target: T7, Mannose-6-phosphate isomerase (Homo sapiens, UniProt P34949); assay: human PMI inhibitors, high substrate, primary screen, biochemical, fluorescence intensity, high mannose 6-phosphate (AID 1220)
T7 sequence (P34949 whole entry): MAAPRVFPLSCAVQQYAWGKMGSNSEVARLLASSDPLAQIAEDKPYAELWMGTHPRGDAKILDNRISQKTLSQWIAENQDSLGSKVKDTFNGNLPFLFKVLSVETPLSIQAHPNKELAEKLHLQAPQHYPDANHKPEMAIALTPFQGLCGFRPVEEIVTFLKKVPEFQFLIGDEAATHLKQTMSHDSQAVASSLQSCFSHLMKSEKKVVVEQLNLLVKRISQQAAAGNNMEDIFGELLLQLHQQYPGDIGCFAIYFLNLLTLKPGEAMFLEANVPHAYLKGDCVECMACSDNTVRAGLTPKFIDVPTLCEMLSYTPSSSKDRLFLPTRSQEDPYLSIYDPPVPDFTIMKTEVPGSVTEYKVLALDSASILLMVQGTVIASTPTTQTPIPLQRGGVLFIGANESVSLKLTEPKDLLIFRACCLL

[16] = MC4R antagonists, dose response, counter-screen for LGR2 antagonist project, cell-based, plate reader, cherry pick (AID 743444); type: functional;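 note: transfected HEK 293 cells stimulated with alpha-MSH peptide; potency of inhibitors of the alpha-MSH evoked signal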
[17] = A549 cell cytotoxicity, dose response, cytotoxicity control, plate reader, cherry-pick, antagonist series (AID 743412); type: functional, cell-based
[18] = LGR2 antagonists, dose response, cell-based, HEK293, CRE-luciferase reporter, cherry pick, set 2 (AID 743343); type: functional;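 note: transfected cells were stimulated with diluted bursicon conditioned medium after compound addition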
[19] = molecular target: Heat shock protein HSP 90-alpha (Homo sapiens, UniProt P07900); type: functional, organism-based
INS1 = assay: beta cell apoptosis inhibitors, cytokine rescue, dose response, luminescence, retest (AID 449756); type: functional, cell-based; settings: Rattus norvegicus;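 note: cell death triggered by IL-1 beta plus TNF-alpha plus IFN-gamma mixture; protective hits raise ATP signal compared with cytokine alone wells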

Sequence of Induced myeloid leukemia cell differentiation protein Mcl-1 (Q07820 whole entry): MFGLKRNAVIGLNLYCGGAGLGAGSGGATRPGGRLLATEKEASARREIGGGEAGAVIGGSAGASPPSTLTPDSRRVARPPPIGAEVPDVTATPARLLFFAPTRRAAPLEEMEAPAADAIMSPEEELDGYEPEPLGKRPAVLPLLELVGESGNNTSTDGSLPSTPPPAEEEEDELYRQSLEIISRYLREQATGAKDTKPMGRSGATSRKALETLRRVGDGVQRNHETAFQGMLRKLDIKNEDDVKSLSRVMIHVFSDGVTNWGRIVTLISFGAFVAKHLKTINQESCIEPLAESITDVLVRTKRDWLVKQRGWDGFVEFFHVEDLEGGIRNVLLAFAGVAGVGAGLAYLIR
Sequence of Cytochrome P450 3A4 (P08684 whole entry): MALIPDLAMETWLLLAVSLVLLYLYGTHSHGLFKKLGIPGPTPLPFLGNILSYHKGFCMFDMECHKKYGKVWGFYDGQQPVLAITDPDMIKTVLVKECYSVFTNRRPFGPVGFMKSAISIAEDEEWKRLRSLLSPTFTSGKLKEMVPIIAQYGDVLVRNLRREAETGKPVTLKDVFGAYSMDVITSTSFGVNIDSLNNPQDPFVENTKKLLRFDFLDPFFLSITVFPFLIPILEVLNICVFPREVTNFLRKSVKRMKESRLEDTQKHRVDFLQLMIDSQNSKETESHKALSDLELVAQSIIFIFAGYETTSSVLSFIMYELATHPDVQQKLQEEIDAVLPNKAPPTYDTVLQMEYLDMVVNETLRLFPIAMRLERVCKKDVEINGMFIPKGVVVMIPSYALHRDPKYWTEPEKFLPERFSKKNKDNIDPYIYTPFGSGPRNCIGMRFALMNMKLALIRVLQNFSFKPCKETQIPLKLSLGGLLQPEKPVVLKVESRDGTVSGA
Sequence of Peroxisome proliferator-activated receptor gamma/Nuclear receptor coactivator 2 (P37231 whole entry): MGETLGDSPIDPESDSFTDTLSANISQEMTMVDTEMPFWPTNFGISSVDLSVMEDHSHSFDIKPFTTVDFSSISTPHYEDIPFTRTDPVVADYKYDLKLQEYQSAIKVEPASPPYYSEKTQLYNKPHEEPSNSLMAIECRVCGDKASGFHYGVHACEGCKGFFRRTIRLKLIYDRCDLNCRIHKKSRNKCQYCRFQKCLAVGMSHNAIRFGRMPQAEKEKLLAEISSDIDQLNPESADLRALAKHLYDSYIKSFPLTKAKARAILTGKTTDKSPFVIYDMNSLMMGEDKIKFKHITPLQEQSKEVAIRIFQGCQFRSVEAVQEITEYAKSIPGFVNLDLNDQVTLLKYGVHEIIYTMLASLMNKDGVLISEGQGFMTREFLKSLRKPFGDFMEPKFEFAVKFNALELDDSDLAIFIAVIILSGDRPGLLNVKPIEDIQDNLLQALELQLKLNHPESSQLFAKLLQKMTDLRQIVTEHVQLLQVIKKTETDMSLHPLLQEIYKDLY
Sequence of Peroxisome proliferator-activated receptor gamma/Nuclear receptor coactivator 2 (Q15596 whole entry, further chain): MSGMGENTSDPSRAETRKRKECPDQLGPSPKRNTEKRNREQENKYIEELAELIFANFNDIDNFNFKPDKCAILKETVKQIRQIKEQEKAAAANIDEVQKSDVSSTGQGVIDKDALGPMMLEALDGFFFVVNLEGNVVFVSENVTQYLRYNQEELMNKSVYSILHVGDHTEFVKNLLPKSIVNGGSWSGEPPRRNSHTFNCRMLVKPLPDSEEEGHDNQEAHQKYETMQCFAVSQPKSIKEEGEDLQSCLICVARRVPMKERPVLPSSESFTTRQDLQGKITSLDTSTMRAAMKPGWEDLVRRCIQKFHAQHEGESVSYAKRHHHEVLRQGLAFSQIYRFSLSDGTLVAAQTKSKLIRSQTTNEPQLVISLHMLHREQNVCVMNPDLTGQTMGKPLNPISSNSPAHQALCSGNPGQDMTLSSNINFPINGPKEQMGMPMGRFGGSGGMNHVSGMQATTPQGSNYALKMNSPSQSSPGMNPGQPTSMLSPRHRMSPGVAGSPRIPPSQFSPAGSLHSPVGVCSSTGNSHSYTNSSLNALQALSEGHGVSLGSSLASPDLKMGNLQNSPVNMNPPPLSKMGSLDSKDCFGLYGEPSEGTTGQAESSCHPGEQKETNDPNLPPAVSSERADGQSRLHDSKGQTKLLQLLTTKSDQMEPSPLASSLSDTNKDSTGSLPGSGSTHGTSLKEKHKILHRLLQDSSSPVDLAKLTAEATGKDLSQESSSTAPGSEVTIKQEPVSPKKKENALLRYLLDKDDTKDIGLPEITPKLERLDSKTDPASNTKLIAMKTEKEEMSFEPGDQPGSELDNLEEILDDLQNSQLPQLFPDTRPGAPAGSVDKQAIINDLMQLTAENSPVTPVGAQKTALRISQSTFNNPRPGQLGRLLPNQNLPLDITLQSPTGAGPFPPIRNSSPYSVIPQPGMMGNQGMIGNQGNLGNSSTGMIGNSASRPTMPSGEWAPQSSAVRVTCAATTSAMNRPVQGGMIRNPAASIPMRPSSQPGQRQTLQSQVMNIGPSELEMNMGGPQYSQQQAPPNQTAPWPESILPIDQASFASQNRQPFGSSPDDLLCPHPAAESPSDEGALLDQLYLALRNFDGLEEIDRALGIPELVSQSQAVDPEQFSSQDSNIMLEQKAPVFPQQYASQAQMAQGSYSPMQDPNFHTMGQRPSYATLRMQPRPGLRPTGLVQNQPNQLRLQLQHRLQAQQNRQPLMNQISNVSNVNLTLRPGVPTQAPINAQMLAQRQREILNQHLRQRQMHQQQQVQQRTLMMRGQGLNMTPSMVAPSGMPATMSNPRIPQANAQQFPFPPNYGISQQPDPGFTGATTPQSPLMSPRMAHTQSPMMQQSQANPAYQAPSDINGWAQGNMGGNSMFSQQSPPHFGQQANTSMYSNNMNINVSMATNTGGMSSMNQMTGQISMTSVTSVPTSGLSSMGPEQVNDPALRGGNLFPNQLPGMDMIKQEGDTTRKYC
Sequence of Peroxisome proliferator-activated receptor gamma/Nuclear receptor coactivator 3 (P37231 whole entry): as the sequence (P37231 whole entry) above
Sequence of Peroxisome proliferator-activated receptor gamma/Nuclear receptor coactivator 3 (Q9Y6Q9 whole entry, further chain): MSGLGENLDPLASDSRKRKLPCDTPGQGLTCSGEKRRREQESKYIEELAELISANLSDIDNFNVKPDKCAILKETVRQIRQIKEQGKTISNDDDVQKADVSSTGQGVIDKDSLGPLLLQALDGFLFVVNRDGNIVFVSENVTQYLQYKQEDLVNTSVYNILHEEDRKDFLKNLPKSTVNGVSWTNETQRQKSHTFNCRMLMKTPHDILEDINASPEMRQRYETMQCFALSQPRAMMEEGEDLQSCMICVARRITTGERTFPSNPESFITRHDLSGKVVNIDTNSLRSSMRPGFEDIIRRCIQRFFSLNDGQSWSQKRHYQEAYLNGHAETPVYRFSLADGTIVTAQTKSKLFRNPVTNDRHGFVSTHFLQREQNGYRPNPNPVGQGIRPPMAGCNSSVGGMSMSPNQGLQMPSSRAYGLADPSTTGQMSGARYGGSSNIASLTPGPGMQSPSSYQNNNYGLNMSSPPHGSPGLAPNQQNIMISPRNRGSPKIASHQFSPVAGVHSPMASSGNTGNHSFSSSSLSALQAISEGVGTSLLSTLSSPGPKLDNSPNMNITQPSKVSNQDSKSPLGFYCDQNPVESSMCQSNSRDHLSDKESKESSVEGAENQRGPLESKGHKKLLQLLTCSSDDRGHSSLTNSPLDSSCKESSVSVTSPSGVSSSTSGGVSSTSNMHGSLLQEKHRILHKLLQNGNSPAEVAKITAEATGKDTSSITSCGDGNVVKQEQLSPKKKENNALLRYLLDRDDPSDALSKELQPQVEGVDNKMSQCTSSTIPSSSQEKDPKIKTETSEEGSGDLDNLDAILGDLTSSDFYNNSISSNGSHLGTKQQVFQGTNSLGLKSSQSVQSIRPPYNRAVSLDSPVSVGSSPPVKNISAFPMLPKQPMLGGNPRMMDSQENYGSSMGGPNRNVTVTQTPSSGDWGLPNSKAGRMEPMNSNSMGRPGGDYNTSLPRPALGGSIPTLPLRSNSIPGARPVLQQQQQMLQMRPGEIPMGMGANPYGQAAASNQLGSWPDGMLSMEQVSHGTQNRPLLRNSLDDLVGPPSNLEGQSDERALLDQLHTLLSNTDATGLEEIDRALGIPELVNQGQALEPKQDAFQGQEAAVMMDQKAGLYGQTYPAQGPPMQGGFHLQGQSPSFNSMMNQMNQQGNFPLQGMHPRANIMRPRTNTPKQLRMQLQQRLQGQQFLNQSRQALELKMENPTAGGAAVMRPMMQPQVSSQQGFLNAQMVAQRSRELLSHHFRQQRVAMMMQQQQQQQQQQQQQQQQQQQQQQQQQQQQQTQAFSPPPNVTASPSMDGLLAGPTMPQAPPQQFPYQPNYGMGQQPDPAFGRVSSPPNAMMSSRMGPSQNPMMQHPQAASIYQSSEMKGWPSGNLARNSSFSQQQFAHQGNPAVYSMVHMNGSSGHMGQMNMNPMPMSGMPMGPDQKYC

Oc1c(Cl)cc(Cl)cc1C(C#Cc1ccccc1)N1CCOCC1 (stereo not drawn)
EC50 (Streptococcus): 48.9 µM (active)
EC50 (Streptokinase A): 26.8 µM (active)
EC50 [1]: 16.6 µM (active)
IC50 [2]: 12.8 µM (not active)

O=C(Nc1cccc(-c2ccc(N3CCCCC3)nn2)c1)c1ccc(Br)o1
CC50 [3]: > 40 µM (active)

O=C(NNc1nc(-c2ccccc2)cs1)c1ccccc1
CC50 [3]: > 40 µM (active)
IC50 [4]: 14.5 µM (active)

NC1=NC[C@H](Cc2ccc(O)cc2)N1CCc1cccc2ccccc12
IC50 (cells): 9.5 µM (active)
IC50 [5]: > 20 µM (inactive)
CC50 [6]: > 40 µM (active)

COc1ccc(Cl)c(N2CCN(CCCNC(=O)Nc3ccc(C)cc3)CC2)c1
IC50 [7]: 6.56 µM (active)

Cc1ccc(C(=O)Nc2nnc(-c3cccs3)s2)cc1C
EC50 [8]: > 79.4 µM (not active)
EC50 [9]: 9.65 µM (active)
EC50 [10]: 9.78 µM (active)

O=C(NC(=S)NCC1CCCO1)c1ccc(Br)o1 (stereo not drawn)
IC50 [2]: 1.43 µM (not active)

O=C(CCc1ccc(Oc2cc([N+](=O)[O-])cc([N+](=O)[O-])c2)cc1)N1CCCCCC1
EC50 [11]: 0.187 µM (active)
CC50 [3]: > 40 µM (active)
EC50 [12]: > 30 µM (not active)
AC50 [13]: 4.73 µM (active)

COc1ccc(C(=O)N2c3ccccc3CC2C)cc1OC (stereo not drawn)
IC50 [7]: 0.799 µM (not active)

O=C(CSc1nnnn1-c1ccc(O)cc1)Nc1cccc(S(=O)(=O)N2CCCC2)c1
AC50 [14]: 50.2 µM (active)

CCOc1ccc(-c2ccc(/C=C3/C(=N)N4C=CSC4=NC3=O)o2)c([N+](=O)[O-])c1
IC50 [7]: 1.48 µM (active)

CC1CCCCN1Cc1cnc(Cl)s1 (stereo not drawn)
IC50 [2]: > 50 µM (not active)

c1ccc(-c2c3c4ccccc4nc-3[nH]c3ccccc23)cc1
CC50 [3]: > 40 µM (active)
AC50 [13]: 2.03 µM (active)

CN1c2ccccc2C(C)(C)C12C=Nc1c(cc(N3CCOCC3)c3ccccc13)O2 (stereo not drawn)
AC50 (Cytochrome P450 3A4): 4.47 µM (inconclusive)
EC50 (Protein RecA): 50.5 µM (inconclusive)
IC50 [15]: > 50 µM (not active)

c1ccc(C2=Nn3c(nnc3-c3ccco3)SC2)cc1
IC50 [15]: > 50 µM (not active)

COc1ccc(C(CC(=O)c2ccccc2)S(=O)(=O)c2ccc(C)cc2)cc1 (stereo not drawn)
CC50 [3]: > 40 µM (active)

CCOC(=O)c1c(N)sc(N)c1C(=O)OCC
IC50 [15]: > 50 µM (not active)

O=c1cc(-c2ccccc2)oc2cc(OCc3ccccc3)cc(O)c12
IC50 [2]: > 50 µM (not active)

CCCCNC(=S)N/N=C1\CCCCc2ccccc21
IC50 [2]: 11.2 µM (not active)

Cc1ccc(S(=O)(=O)N(C)C[C@H]2Oc3c(cccc3N(C)C)C(=O)N([C@@H](C)CO)C[C@@H]2C)cc1
AC50 [16]: 0.341 µM (active)
AC50 [17]: > 52 µM (inactive)
AC50 [18]: 0.726 µM (active)

CCCC(=O)NC(c1ccc(OC)c(OC)c1)c1cc(Cl)c2cccnc2c1O (stereo not drawn)
AC50 [14]: 9.06 µM (active)
EC50 [11]: 1.2 µM (active)
EC50 [12]: < 6 µM (inconclusive)
AC50 [19]: 12.4 µM (active)
AC50 (INS1): 1.69 µM (active)

N#C[C@@H]1[C@H](c2ccc(C#CC3CCCCC3)cc2)[C@@H](CO)N1C(=O)c1cccc(F)c1
AC50 [16]: 36.1 µM (active)
AC50 [17]: 35.8 µM (active)

Reference: ChEMBL document CHEMBL1201862, “PubChem BioAssay data set” (2004)
